Measured values: patent publication US20260248788A1, “NEW COMPOUNDS AND TREATMENT OF RENAL CELL CARCINOMA” (TRUSTLIFE THERAPEUTICS INC., priority 2023, published 2026)
“Also recorded” adds a separate entry of the source.

How the values were obtained:
Caki-1 cells [1] = assay: MTT cell viability assay; type: cell-based, human; conditions: for reduction in cell viability (MTT) / effect on cell viability (MTT): 1 day; for cell viability of treated cells (summary statement): concentration not given
Experimental: (§1) Cell culture 2: Caki-1 was purchased from CLS Cell Lines Service (Germany). The cells were maintained in McCoy's 5A (modified) medium (16600082, Thermo Fisher Scientific, USA) and supplemented with 10% fetal bovine serum (FBS, F7524, Sigma-Aldrich), 1% Penicillin/Streptomycin (P4333, Sigma-Aldrich).
The cytotoxic effects of the TG-101209 and its alternatives on the Caki-1 cells were tested by MTT (Thiazolyl Blue Tetrazolium Bromide) method. 1.5×10^4 cells were seeded per well in a 96-well plate in 100 μL growth media. […] After the incubation period, 5 mg/ml MTT (M2128, Sigma-Aldrich) solution in PBS (10 μL) was added to each well. After 1 hour, the MTT solution and all media were removed from the wells. 100 μl of DMSO was added and mixed to dissolve the formazan crystals. Cell viability was analysed by measuring the absorbance of the dissolved formazan at a wavelength of 570 nm with a microplate reader (Hidex Sense Beta Plus).

Caki-1 cells [2] = assay: LDH cytotoxicity assay; type: cell-based, human; conditions: 1 day; for cytotoxicity (LDH assay): Caki-1, 10 μM; for Ranking, Cytotoxicity (%): top five, LDH assay, 10 μM, rank 1 = highest
Experimental: as §1
Lactate dehydrogenase (LDH) assay was performed with LDH Assay Kit (ab65393). […] 20 μl of media was analysed with LDH Assay Kit as per manufacturer's instruction.

SMILES | reduction in cell viability (MTT) (Caki-1 cells [1]; Caki-1, 5 μM, first batch) | effect on cell viability (MTT) (Caki-1 cells [1]; Caki-1, 10 μM, first batch) | cell viability of treated cells (summary statement) (Caki-1 cells [1]) | cytotoxicity (LDH assay) (Caki-1 cells [2]; first batch) | Ranking, Cytotoxicity (%) (Caki-1 cells [2]) | cytotoxicity (LDH assay) (Caki-1 cells [2]; second batch) | reduction in cell viability (MTT) (Caki-1 cells [1]; Caki-1, 10 μM, second batch)
COc1cc(NC(=O)c2ccc(Nc3ncc(C)c(Nc4cccc(S(=O)(=O)NC(C)(C)C)c4)n3)cc2)cc(OC)c1 [Compound M101A, 4-((4-((3-(N-(tert-butyl)sulfamoyl)phenyl)amino)-5-methylpyrimidin-2-yl)amino)-N-(3,5-dimethoxyphenyl)benzamide] | the greatest | most profound effect | particularly low cell viability; also recorded: significantly reduced cell viability | exhibited cytotoxicity | 5 | – | –
Cc1cnc(Nc2ccc(C(=O)Nc3cccc(Br)c3)cc2)nc1Nc1cccc(S(=O)(=O)NC(C)(C)C)c1 [Compound M101B, N-(3-bromophenyl)-4-((4-((3-(N-(tert-butyl)sulfamoyl)phenyl)amino)-5-methylpyrimidin-2-yl)amino)benzamide] | the greatest | – | particularly low cell viability; also recorded: significantly reduced cell viability | exhibited cytotoxicity | 3 | – | –
Cc1cnc(Nc2ccc(C(=O)Nc3cccc(S(=O)(=O)NC(C)(C)C)c3)cc2)nc1Nc1cccc(S(=O)(=O)NC(C)(C)C)c1 [Compound M101D, N-(3-(N-(tert-butyl)sulfamoyl)phenyl)-4-((4-((3-(N-(tert-butyl)sulfamoyl)phenyl)amino)-5-methylpyrimidin-2-yl)amino)benzamide] | the greatest | greatest reduction of cell viability | particularly low cell viability; also recorded: significantly reduced cell viability | highest cytotoxicity | 1 | – | –
Cc1cnc(Nc2ccc(C(=O)Nc3ccc(OCCCN4CCOCC4)cc3)cc2)nc1Nc1cccc(S(=O)(=O)NC(C)(C)C)c1 [Compound M101G, 4-((4-((3-(N-(tert-butyl)sulfamoyl)phenyl)amino)-5-methylpyrimidin-2-yl)amino)-N-(4-(3-morpholinopropoxy)phenyl)benzamide] | the greatest | – | particularly low cell viability; also recorded: significantly reduced cell viability | – | – | – | –
Cc1cnc(Nc2ccc(C(=O)Nc3ccc4ncccc4c3)cc2)nc1Nc1cccc(S(=O)(=O)NC(C)(C)C)c1 [Compound M101H, 4-((4-((3-(N-(tert-butyl)sulfamoyl)phenyl)amino)-5-methylpyrimidin-2-yl)amino)-N-(quinolin-6-yl)benzamide] | the greatest | – | particularly low cell viability; also recorded: significantly reduced cell viability | – | – | – | –
Cc1ccc(NC(=O)c2ccc(Nc3ncc(C)c(Nc4cccc(S(=O)(=O)NC(C)(C)C)c4)n3)cc2)cc1S(N)(=O)=O [Compound M101Q, 4-((4-((3-(N-(tert-butyl)sulfamoyl)phenyl)amino)-5-methylpyrimidin-2-yl)amino)-N-(4-methyl-3-sulfamoylphenyl)benzamide] | – | – | – | – | – | greatest cytotoxicity | –
Cc1cnc(Nc2ccc(C(=O)Nc3ccc(Oc4ccc(Cl)cc4)nc3)cc2)nc1Nc1cccc(S(=O)(=O)NC(C)(C)C)c1 [Compound M101V, 4-((4-((3-(N-(tert-butyl)sulfamoyl)phenyl)amino)-5-methylpyrimidin-2-yl)amino)-N-(6-(4-chlorophenoxy)pyridin-3-yl)benzamide] | – | – | – | – | – | greatest cytotoxicity | –
Cc1cnc(Nc2ccc(C(=O)Nc3ccc(N4CCN(C)CC4)cc3)cc2)nc1Nc1ccc(N2CCN(C)CC2)cc1 [ME3, 4-((5-methyl-4-((4-(4-methylpiperazin-1-yl)phenyl)amino)pyrimidin-2-yl)amino)-N-(4-(4-methylpiperazin-1-yl)phenyl)benzamide] | – | – | particularly low cell viability; also recorded: significantly reduced cell viability | – | – | – | the greatest
